{"source": "ChEMBL document CHEMBL4808225", "about": "“Discovery and Characterization of Selective and Ligand-Efficient DYRK Inhibitors” (J Med Chem, 2021)", "target": "T1, Dual specificity tyrosine-phosphorylation-regulated kinase 2 (Homo sapiens, UniProt Q92630)", "T1 sequence (Q92630 whole entry)": "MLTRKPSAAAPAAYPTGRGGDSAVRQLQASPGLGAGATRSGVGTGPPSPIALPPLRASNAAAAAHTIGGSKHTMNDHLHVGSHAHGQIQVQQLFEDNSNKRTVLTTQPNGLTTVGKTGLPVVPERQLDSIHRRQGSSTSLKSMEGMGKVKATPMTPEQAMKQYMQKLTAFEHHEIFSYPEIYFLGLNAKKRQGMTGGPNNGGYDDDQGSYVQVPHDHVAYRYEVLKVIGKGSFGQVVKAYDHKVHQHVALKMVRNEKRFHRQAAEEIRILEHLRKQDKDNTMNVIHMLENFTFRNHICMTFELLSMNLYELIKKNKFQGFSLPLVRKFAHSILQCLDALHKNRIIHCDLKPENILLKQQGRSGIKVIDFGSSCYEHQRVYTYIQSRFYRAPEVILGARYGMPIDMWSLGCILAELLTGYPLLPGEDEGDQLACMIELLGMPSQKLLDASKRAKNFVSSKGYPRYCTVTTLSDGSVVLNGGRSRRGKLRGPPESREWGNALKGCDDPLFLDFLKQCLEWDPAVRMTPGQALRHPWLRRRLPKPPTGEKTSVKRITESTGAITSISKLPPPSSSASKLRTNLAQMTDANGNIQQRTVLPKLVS", "assay": "Binding affinity to wild-type human full length DYRK2 (M1 to S528 residues) expressed in mammalian expression system measured after 1 hr by competitive binding assay"}
{"compound": "CN(C)c1nccc(-c2cnn3ncccc23)n1", "values": [{"measurement": "Kd", "result": 360, "unit": "nM"}]}
